Laboratory results reported in patent US20160346291A1, “COMPOSITIONS AND THERAPEUTIC METHODS FOR ACCELERATED PLAQUE REGRESSION” (Resverlogix Corp, priority 2013, published 2016).

tested on: ApoA-I mRNA; assay: ApoA-I mRNA quantitation in HepG2 cells (real-time PCR); format: cell-based; parameters: key: Active: An active compound is one that causes a >15% increase in ApoA-I mRNA at a concentration less than or equal to 100 uM; conditions: concentration less than or equal to 100 uM, fold induction relative to DMSO control
Procedure: At time of harvesting, the spent media was removed from the HepG2 cells and immediately placed on ice (for immediate use) or at −80° C. (for future use) in ApoA-I and albumin ELISAs. The cells remaining in the plate wells were rinsed in 200 μL PBS. PBS was carefully removed to avoid removing any loosely attached cells.
Once the PBS was removed, 85 μL cell lysis solution was added to the cells in each well and incubated for 5-10 min at room temperature, to allow for complete cell lysis and detachment. mRNA was then prepared using the “mRNA Catcher PLUS plate” from Invitrogen, according to the protocol supplied. After the last wash, as much wash buffer as possible was aspirated without allowing the wells to dry. Elution Buffer (E3, 80 μL) was then added to each well. mRNA was then eluted by incubating the mRNA Catcher PLUS plate with Elution Buffer for 5 min at 68° C. and then immediately placing the plate on ice.
The eluted mRNA was isolated and then used in a one-step real-time […]-PCR reaction, using components of the Ultra Sense Kit together with Applied Biosystems primer-probe mixes. Real-time PCR data was analyzed, using the Ct values, to determine the fold induction of each unknown sample, relative to the control (that is, relative to the control for each independent DMSO concentration).
The following compounds of Formula I were evaluated in this assay. An active compound is one that causes a >15% increase in ApoA-I mRNA at a concentration less than or equal to 100 uM.

| SMILES | Effect on ApoA-I mRNA levels |
| --- | --- |
| COc1cc(OC)c2c(=O)[nH]c(-c3ccc4c(c3)OCCO4)nc2c1 [2-(2,3-dihydrobenzo[b][1,4]dioxin-6-yl)-5,7-dimethoxyquinazolin-4(3H)-one] | Active |
| Cc1cc(-c2cc3ccc(CN4CCOCC4)cc3c(=O)[nH]2)cc(C)c1O [3-(4-hydroxy-3,5-dimethylphenyl)-7-(morpholinomethyl)isoquinolin-1(2H)-one] | Active |
| COc1cc(OC)c2c(=O)[nH]c(-c3cc(C)c(OCCN4CCOCC4)c(C)c3)cc2n1 [7-(3,5-dimethyl-4-(2-morpholinoethoxy)phenyl)-2,4-dimethoxy-1,6-naphthyridin-5(6H)-one] | Active |
| COc1ccc(NC(=O)NCCOc2c(C)cc(-c3nc4cc(OC)cc(OC)c4c(=O)[nH]3)cc2C)cc1 [1-(2-(4-(5,7-dimethoxy-4-oxo-3,4-dihydroquinazolin-2-yl)-2,6-dimethylphenoxy)ethyl)-3-(4-methoxyphenyl)urea] | Active |
| O=c1[nH]c(-c2ccc3c(c2)OCCO3)nc2ccccc12 [2-(2,3-dihydrobenzo[b][1,4]dioxin-6-yl)quinazolin-4(3H)-one] | Active |
| COc1cc2cc(-c3cc(C)c(O)c(C)c3)[nH]c(=O)c2c(OC)c1CN1CCOCC1 [3-(4-hydroxy-3,5-dimethylphenyl)-6,8-dimethoxy-7-(morpholinomethyl)isoquinolin-1(2H)-one] | Active |
| Cc1cc(-c2nc3ccccc3c(=O)[nH]2)cc(C)c1OCCN1CCOCC1 [2-(3,5-dimethyl-4-(2-morpholinoethoxy)phenyl)quinazolin-4(3H)-one] | Active |
| COc1cc(OC)c2c(=O)[nH]c(-c3cc(C)c(OCc4ccccc4)c(C)c3)nc2c1 [2-(4-(benzyloxy)-3,5-dimethylphenyl)-5,7-dimethoxyquinazolin-4(3H)-one] | Active |
| COc1cc(OC)c2c(=O)[nH]c(-c3ccccn3)nc2c1 [5,7-dimethoxy-2-(pyridin-2-yl)quinazolin-4(3H)-one] | Active |
| COc1cc(OC)c2c(=O)[nH]c(-c3cc(C)c(OCCN4C(=O)c5ccccc5C4=O)c(C)c3)nc2c1 [2-(2-(4-(5,7-dimethoxy-4-oxo-3,4-dihydroquinazolin-2-yl)-2,6-dimethylphenoxy)ethyl)isoindoline-1,3-dione] | Inactive |
| COc1cc(OC)c2c(=O)[nH]c(-c3ccc(N(C)C)c4ccccc34)nc2c1 [2-(4-(dimethylamino)naphthalene-1-yl)-5,7-dimethoxyquinazolin-4(3H)-one] | Active |
| COc1cc(OC)c2cnc(-c3cc(C)c(OCCO)c(C)c3)nc2c1 [2-(4-(5,7-dimethoxyquinazolin-2-yl)-2,6-dimethylphenoxy)ethanol] | Active |
| COc1cc(OC)c2c(=O)[nH]c(-c3ccc(OCCO)c(OC)c3)nc2c1 [2-(4-(2-hydroxyethoxy)-3-methoxyphenyl)-5,7-dimethoxyquinazolin-4(3H)-one] | Active |
| COc1cccc2nc(-c3cc(C)c(OCCO)c(C)c3)[nH]c(=O)c12 [2-(4-(2-hydroxyethoxy)-3,5-dimethylphenyl)-5-methoxyquinazolin-4(3H)-one] | Active |
| Oc1ccc(-c2cc3ncccc3cn2)cc1 [4-(1,6-naphthyridin-7-yl)phenol] | Active |
| COc1cc(OC)c2c(=O)[nH]c(-c3cc(C)c(OCCNC(=O)c4ccccc4)c(C)c3)nc2c1 [N-(2-(4-(5,7-dimethoxy-4-oxo-3,4-dihydroquinazolin-2-yl)-2,6-dimethylphenoxy)ethyl)benzamide] | Active |
| O=c1[nH]c(-c2ccc(O)cc2)cc2ccccc12 [3-(4-Hydroxyphenyl)-2H-isoquinolin-1-one] | Active |
| COc1cc(OC)c2c(=O)[nH]c(-c3ccc(CN4CCN(C)CC4)cc3)nc2c1 [5,7-dimethoxy-2-(4-((4-methylpiperazin-1-yl)methyl)phenyl)quinazolin-4(3H)-one] | Active |
| COc1cc(OC)c2c(=O)[nH]c(-c3cc(C)c(OCCNC(C)=O)c(C)c3)nc2c1 [N-(2-(4-(5,7-dimethoxy-4-oxo-3,4-dihydroquinazolin-2-yl)-2,6-dimethylphenoxy)ethyl)acetamide] | Active |
| COc1cc(OC)c2c(=O)[nH]c(-c3cc(C)c(OCCO)c(C)c3)cc2n1 [7-(4-(2-hydroxyethoxy)-3,5-dimethylphenyl)-2,4-dimethoxy-1,6-naphthyridin-5(6H)-one] | Active |

| SMILES | Effect on ApoA-I mRNA levels |
| --- | --- |
| CN(C)c1ccc(-c2nc3ccccc3c(=O)[nH]2)c2ccccc12 [2-(4-(dimethylamino)naphthalene-1-yl)quinazolin-4(3H)-one] | Active |
| COc1cc(OC)c2c(=O)[nH]c(-c3ccc(O)c(OC)c3)nc2c1 [2-(4-hydroxy-3-methoxyphenyl)-5,7-dimethoxyquinazolin-4(3H)-one] | Active |
| CC(=O)Nc1ccc2nc(-c3cc(C)c(O)c(C)c3)[nH]c(=O)c2c1 [N-(2-(4-hydroxy-3,5-dimethylphenyl)-4-oxo-3,4-dihydroquinazolin-6-yl)acetamide] | Active |
| COc1ccc(C(=O)NCCOc2c(C)cc(-c3nc4cc(OC)cc(OC)c4c(=O)[nH]3)cc2C)cc1 [N-(2-(4-(5,7-dimethoxy-4-oxo-3,4-dihydroquinazolin-2-yl)-2,6-dimethylphenoxy)ethyl)-4-methoxybenzamide] | Active |
| Cc1cc(-c2nc3ccccc3c(=O)[nH]2)cc(C)c1OCCO [2-(4-(2-hydroxyethoxy)-3,5-dimethylphenyl)quinazolin-4(3H)-one] | Active |
| Cl.Cl.Cl.Cl.N=C(N)NCCCC(N)C(=O)Oc1ccc(-c2cc3ccccc3cn2)cc1 (stereo not drawn) [4-(Isoquinolin-3-yl)phenyl 2-amino-5-guanidinopentanoate tetrahydrochloride] | Active |
| COc1cc(OC)c2c(=O)[nH]c(-c3ccc(OCC(N)=O)cc3)nc2c1 [2-(4-(5,7-dimethoxy-4-oxo-3,4-dihydroquinazolin-2-yl)phenoxy)acetamide] | Active |
| COc1cc(OC)c2c(=O)[nH]c(-c3cc(C)c(OC)c(C)c3)cc2n1 [2,4-dimethoxy-7-(4-methoxy-3,5-dimethylphenyl)-1,6-naphthyridin-5(6H)-one] | Active |
| COc1cc(O)c2c(=O)[nH]c(-c3cc(C)c(O)c(C)c3)nc2c1 [5-hydroxy-2-(4-hydroxy-3,5-dimethylphenyl)-7-methoxyquinazolin-4(3H)-one] | Active |
| COc1cc(OC)c2c(=O)[nH]c(-c3cc(C)c(/N=C/N(C)C)c(C)c3)nc2c1 [(E)-N′-(4-(5,7-dimethoxy-4-oxo-3,4-dihydroquinazolin-2-yl)-2,6-dimethylphenyl)-N,N-dimethylformimidamide] | Active |
| COc1cc(OC)c2c(=O)[nH]c(-c3ccc(N(CCO)CCO)cc3)nc2c1 [2-(4-(bis(2-hydroxyethyl)amino)phenyl)-5,7-dimethoxyquinazolin-4(3H)-one] | Active |
| COc1cc(OC)c2c(=O)[nH]c(-c3cc(C)c(NC(=O)CO)c(C)c3)nc2c1 [N-(4-(5,7-dimethoxy-4-oxo-3,4-dihydroquinazolin-2-yl)-2,6-dimethylphenyl)-2-hydroxyacetamide] | Active |
| COc1cc(OC)c2c(=O)[nH]c(-c3cc(C)c(OCCN4CCN(C)CC4)c(C)c3)cc2c1 [3-(3,5-dimethyl-4-(2-(4-methylpiperazin-1-yl)ethoxy)phenyl)-6,8-dimethoxyisoquinolin-1(2H)-one] | Active |
| COc1cc2cc(-c3cc(C)c(O)c(C)c3)n(C)c(=O)c2c(OC)c1C [3-(4-hydroxy-3,5-dimethylphenyl)-6,8-dimethoxy-2,7-dimethylisoquinolin-1(2H)-one] | Active |
| COc1ccc(S(=O)(=O)NCCOc2c(C)cc(-c3nc4cc(OC)cc(OC)c4c(=O)[nH]3)cc2C)cc1 [N-(2-(4-(5,7-dimethoxy-4-oxo-3,4-dihydroquinazolin-2-yl)-2,6-dimethylphenoxy)ethyl)-4-methoxybenzenesulfonamide] | Active |
| COc1cc(OC)c2c(=O)[nH]c(-c3cc(C)c(OCCN)c(C)c3)nc2c1 [2-(4-(2-aminoethoxy)-3,5-dimethylphenyl)-5,7-dimethoxyquinazolin-4(3H)-one] | Active |
| COc1cc(OC)c2c(=O)[nH]c(-c3ccc(OCCO)c(Cl)c3)nc2c1 [2-(3-chloro-4-(2-hydroxyethoxy)phenyl)-5,7-dimethoxyquinazolin-4(3H)-one] | Active |
| Cc1cc(-c2nc3ccc(Br)cc3c(=O)[nH]2)cc(C)c1OCCO[Si](C)(C)C(C)(C)C [6-bromo-2-(4-(2-(tert-butyldimethylsilyloxy)ethoxy)-3,5-dimethylphenyl)quinazolin-4(3H)-one] | Active |
| COc1cc(OC)c2c(=O)[nH]c(-c3cc(C)c(O)c(C)c3)cc2n1 [7-(4-hydroxy-3,5-dimethylphenyl)-2,4-dimethoxy-1,6-naphthyridin-5(6H)-one] | Active |
